From patent publication US20140357512A1, “HISTONE DEACETYLASE (HDAC) BIOMARKERS IN MULTIPLE MYELOMA” (priority 2013, published 2014)

System: human myeloma cell line MM.1S
Test: SILAC acetylated-lysine peptide profiling, HDAC inhibitor vs DMSO (light/heavy ratio)
Type: cell-based
Text: An embodiment of the invention comprises utilizing the SILAC method in order to quantitate changes in protein expression between two or more populations of cells. The SILAC method is a technique based on mass spectrometry that detects differences in protein abundance among samples using non-radioactive isotopic labeling. The SILAC method is known in the art, and described in detail in Ong et al., “Stable Isotope Labeling by Amino Acids in Cell Culture, SILAC, as a Simple and Accurate Approach to Expression Proteomics”, Molecular & Cellular Proteomics, vol. 1, pp. 376-386 (2002), which is incorporated herein by reference in its entirety.
Briefly, the SILAC method involves growing two populations of cells in cell culture. The first population of cells is grown in growth media containing normal amino acids (“normal media”). The second population of cells is grown in media lacking a standard essential amino acid (such as lysine), but is then supplemented with a non-radioactive, isotopically labeled form of that essential amino acid (such as lysine labeled with ^13C atoms, rather than normal ^12C atoms), which is called “heavy media”. When the two populations of cells are each growing in the medium, they incorporate the amino acids into all of their proteins. The growth of cells maintained in the heavy media is no different from that in normal media. All peptides containing the heavy amino acids are heavier than their normal counterparts. The cells from each of the two populations of cells are lysed. The lysates from each of the two cell populations are then combined. The combined cell lysates are then analyzed by mass spectrometry. Pairs of chemically identical peptides of different stable isotope composition can be differentiated in a mass spectrometer due to their difference in mass. The ratio of peak intensities in the mass spectrum for such peptide pairs reflects the abundance ratio for the two proteins.
This example describes SILAC studies that were performed to compare the effects of three different HDAC inhibitors (Compound A, Compound B, and tubastatin A) to a control on a human multiple myeloma cell line. The HDAC inhibitors were also compared amongst themselves to determine differences in their effects.
A human myeloma cell line MM.1S was grown using either ^12C (light) or ^13C (heavy) lysine containing culture medium. The “heavy” cells were treated with DMSO as the control, and the “light” cells were treated with a single HDAC inhibitor at 37° C. for 6 hours. The heavy and light cells were lysed, and the lysates were mixed in 1:1 ratio and digested with the protease trypsin. The acetylated lysine containing peptides (due to the action of the HDAC inhibitor) in the digested peptide pool were captured by a non-specific anti-acetylated lysine antibody cocktail (the antibodies identify both light and heavy acetylated peptides), and subjected to mass spectrometry analysis in order to identify thousands of individual peptides.
Thousands of peptides were identified in pairs (^12C and ^13C) due to their known mass differences. The amino acid sequence and quantitative ratio (Light/Heavy) of a given peptide in two differentially treated cell lysates were then determined and annotated with their possible protein (gene) sources.
As stated above, three HDAC inhibitors (Compound A, Compound B, and Tubastatin A) were used. Thus, the SILAC method was performed three times, with a different HDAC inhibitor compared to a control each time. Accordingly, there are three pairs of quantitative data in the table below, i.e., Compound A:DMSO, Compound B:DMSO, and Tubastatin A:DMSO. A cut-off of 1.30 fold of change (increase or decrease) was then used to determine “changed” or “+” in the table, and any peptides with a fold of change less than 1.3 fold were determined to be “unchanged” or “0” in the table. Those peptides that were not identified were marked as “NA” in the table. […]

CN1CCc2c(c3ccccc3n2Cc2ccc(C(=O)NO)cc2)C1 [Tub A]
light to heavy ratio (L/H ratio) of acetylated peptide AVDCLLDSK(ac)WAK (SEQ ID NO: 518) (Translocation protein SEC62 [60], gene SEC62, inhibitor:DMSO): 0.00 log 2
light to heavy ratio (L/H ratio) of acetylated peptide VK(ac)FIHDQTSPNPK (SEQ ID NO: 562) (Tricarboxylate transport protein mitochondrial [149], gene SLC25A1, inhibitor:DMSO): 0.00 log 2
light to heavy ratio (L/H ratio), log 2 scale, acetylated peptide FGAPQK(ac)DVK (SEQ ID NO: 788) (Trifunctional enzyme subunit alpha mitochondrial [359], gene HADHA, drug:DMSO): 0.00
light to heavy ratio (L/H ratio), log 2 scale, acetylated peptide ILQEGVDPK(ac)K (SEQ ID NO: 789) (Trifunctional enzyme subunit alpha mitochondrial [569], gene HADHA, drug:DMSO): 0.00
light to heavy ratio (L/H ratio) of acetylated peptide VPGK(ac)DTVTK (SEQ ID NO: 308) (Trifunctional enzyme subunit beta mitochondrial [272], HADHB, drug:DMSO): 0.40 log 2
L/H ratio of acetylated peptide VVVTK(ac)YCDPDSYHR (SEQ ID NO: 114) (U2AF2 [462], log 2 scale, drug vs DMSO): −0.43
L/H ratio of acetylated peptide (VAILK(ac)ANLR (SEQ ID NO: 488), Transitional endoplasmic reticulum ATPase [658], VCP): 0.00 log 2
light to heavy ratio (L/H ratio) of acetylated peptide, log 2 scale (VALEIFQHSK(ac)YK (SEQ ID NO: 183), Isoform 2 of 39S ribosomal protein L39 mitochondrial [234], MRPL39): 0.64
L/H ratio of acetylated peptide FGIAAK(ac)YQIDPDACFSAK (SEQ ID NO: 115) (VDAC1 [224], log 2 scale, drug vs DMSO): 0.47
L/H ratio of acetylated peptide YK(ac)WCEYGLTFTEK (SEQ ID NO: 116) (VDAC2 [63], log 2 scale, drug vs DMSO): 0.59
L/H ratio of acetylated peptide (ac)CNTPTYCDLGK(ac)AAK (SEQ ID NO: 6) (VDAC3 [12], log 2 scale, drug vs DMSO): 0.52
L/H ratio of acetylated peptide YK(ac)VCNYGLTFTQK (SEQ ID NO: 117) (VDAC3 [63], log 2 scale, drug vs DMSO): 0.40
L/H ratio of acetylated peptide (VIIVVK(ac)DGPGFYTTR (SEQ ID NO: 401), Trifunctional enzyme subunit alpha mitochondrial [540], HADHA): 0.00 log 2
L/H ratio of acetylated peptide TNEK(ac)VELQELNDR (SEQ ID NO: 122) (VIM [104], log 2 scale, drug vs DMSO): −0.59
L/H ratio of acetylated peptide FANYIDK(ac)VR (SEQ ID NO: 118) (VIM [120], log 2 scale, drug vs DMSO): −0.65
L/H ratio of acetylated peptide ILLAELEQLK(ac)GQGK (SEQ ID NO: 119) (VIM [139], log 2 scale, drug vs DMSO): −0.82
L/H ratio of acetylated peptide SK(ac)FADLSEAANR (SEQ ID NO: 121) (VIM [294], log 2 scale, drug vs DMSO): −0.60
L/H ratio of acetylated peptide LQDEIQNMK(ac)EEMAR (SEQ ID NO: 120) (VIM [373], log 2 scale, drug vs DMSO): −0.72
light to heavy ratio (L/H ratio) of acetylated peptide, log 2 scale (VLK(ac)GNTAEGCVHETQEK (SEQ ID NO: 186), Isoform 1 of Myb-binding protein 1A [935], MYBBP1A): −0.43
light to heavy ratio (L/H ratio) of acetylated peptide, log 2 scale (VLPSIVNEVLK(ac)SVVAK (SEQ ID NO: 195), Prohibitin-2 [142], PHB2): 1.00
light to heavy ratio (L/H ratio) of acetylated peptide, log 2 scale (VNLQNNPGAMEHFHMK(ac)LFR (SEQ ID NO: 136), B-cell receptor-associated protein 31 [95], BCAP31): 0.52
light to heavy ratio (L/H ratio) of acetylated peptide, log 2 scale (VTEK(ac)IPVR (SEQ ID NO: 168), Isoform Short of Heterogeneous nuclear ribonucleoprotein U [324], HNRNPU): −0.76
light to heavy ratio (L/H ratio) of acetylated peptide, log 2 scale (VVVGK(ac)TFDSIVMDPK (SEQ ID NO: 193), Protein disulfide-isomerase A4 [533], PDIA4): −0.80
light to heavy ratio (L/H ratio) of acetylated peptide DLQQYQSQAK(ac)QLFR (SEQ ID NO: 321) (Vesicle-trafficking protein SEC22b [38], SEC22B, drug:DMSO): 0.46 log 2
light to heavy ratio (L/H ratio) of acetylated peptide TLLIK(ac)TVETR (SEQ ID NO: 269) (Vimentin [445], VIM, drug:DMSO): −0.54 log 2
light to heavy ratio (L/H ratio) of acetylated peptide, log 2 scale (WVFK(ac)EEGVLR (SEQ ID NO: 150), Dolichyl-diphosphooligosaccharide--protein glycosyltransferase 48 kDa subunit [301], DDOST): −0.53
light to heavy ratio (L/H ratio) of acetylated peptide KQELLEALTK(ac)HFQD (SEQ ID NO: 355) (X-ray repair cross-complementing protein 6 [605], XRCC6, drug:DMSO): 0.00 log 2
L/H ratio of acetylated peptide ALQEK(ac)VEIK (SEQ ID NO: 123) (XRCC5 [665], log 2 scale, drug vs DMSO): −0.46
light to heavy ratio (L/H ratio) of acetylated peptide, log 2 scale (YGPFVADFADK(ac)LNEQK (SEQ ID NO: 134), ATP synthase subunit b mitochondrial [126], ATP5F1): −0.45
light to heavy ratio (L/H ratio) of acetylated peptide, log 2 scale (YIAK(ac)QESVEER (SEQ ID NO: 140), Isoform 3 of Coiled-coil domain-containing protein 144A [754], CCDC144A): −0.42
light to heavy ratio (L/H ratio) of acetylated peptide, log 2 scale (YLENGK(ac)ETLQR (SEQ ID NO: 163), Putative HLA class I histocompatibility antigen alpha chain H [200], HLA-H): −0.46
light to heavy ratio (L/H ratio) of acetylated peptide, log 2 scale (YLLYGEK(ac)GTGK (SEQ ID NO: 147), 28S ribosomal protein S29 mitochondrial [130], DAP3): 0.46
light to heavy ratio (L/H ratio) of acetylated peptide YFLDK(ac)TLTSR (SEQ ID NO: 293) ([3-methyl-2-oxobutanoate dehydrogenase [lipoamide]] kinase mitochondrial [192], BCKDK, drug:DMSO): 0.50 log 2
light to heavy ratio (L/H ratio) of acetylated peptide, log 2 scale ([…](ac)PER (SEQ ID NO: 219), cDNA FLJ59739 highly similar to Protein transport protein Sec61 subunit alpha isoform 1 [27], SEC61A1): 0.49
light to heavy ratio (L/H ratio) of acetylated peptide SAYFAEK(ac)LYK (SEQ ID NO: 292) (annexin A4 [255], ANXA4, drug:DMSO): 0.62 log 2
light to heavy ratio (L/H ratio) of acetylated peptide ILMSK(ac)PVLSGGTGR (SEQ ID NO: 291) (cDNA FLJ55380 highly similar to Protein kinase C-binding protein 1 [440], ZMYND8, drug:DMSO): 0.65 log 2
light to heavy ratio (L/H ratio) of acetylated peptide YDGK(ac)WEVEEMK (SEQ ID NO: 274) (cDNA FLJ55574 highly similar to Calnexin [138], CANX, drug:DMSO): −0.49 log 2
light to heavy ratio (L/H ratio) of acetylated peptide LNK(ac)PFLFDTK (SEQ ID NO: 327) (cDNA FLJ55574 highly similar to Calnexin [172], CANX, drug:DMSO): 0.00 log 2
light to heavy ratio (L/H ratio) of acetylated peptide LLASK(ac)SLLNR (SEQ ID NO: 322) (cDNA FLJ56303 highly similar to Translocon-associated protein subunit beta [46], SSR2, drug:DMSO): −0.59 log 2
light to heavy ratio (L/H ratio) of acetylated peptide IINEVSK(ac)PLAHHIPVEK (SEQ ID NO: 341) (cDNA FLJ77177 highly similar to Homo sapiens arginine-rich mutated in early stage tumors (ARMET) mRNA [97], MANF, drug:DMSO): 0.00 log 2
light to heavy ratio (L/H ratio) of acetylated peptide TNVPVK(ac)LFAR (SEQ ID NO: 348) (cDNA FLJ77422 highly similar to Homo sapiens RNA binding protein autoantigenic (hnRNP-associated with lethal yellow homolog (mouse)) transcript variant 1 mRNA (Fragment) [165], RALY, drug:DMSO): 0.00 log 2
light to heavy ratio (L/H ratio) of acetylated peptide GSK(ac)FYGPAGPYGIFAGR (SEQ ID NO: 265) (membrane-associated progesterone receptor component 2 [159], PGRMC2, drug:DMSO): −0.45 log 2
light to heavy ratio (L/H ratio) of acetylated peptide SK(ac)SDPIMLLK (SEQ ID NO: 255) (pyruvate dehydrogenase E1 component subunit alpha somatic form mitochondrial isoform 2 precursor [351], PDHA1, drug:DMSO): 0.52 log 2
light to heavy ratio (L/H ratio) of acetylated peptide LTSLNVK(ac)YNNDK (SEQ ID NO: 590) (regulator of differentiation 1 isoform 2 [236], gene ROD1, inhibitor:DMSO): 0.00 log 2
light to heavy ratio (L/H ratio) of acetylated peptide GWLK(ac)SNVSDAVAQSTR (SEQ ID NO: 278) (triosephosphate isomerase isoform 2 [231], TPI1, TPI1P1, drug:DMSO): −0.41 log 2
